Source: ChEMBL document CHEMBL4152249, “Alkoxyphenylthiazoles with broad-spectrum activity against multidrug-resistant gram-positive bacterial pathogens” (Eur J Med Chem, 2018)
Values after ≈ are worked out from the molar mass of the structure shown.

Legend:
Staphylococcus aureus [1] = test: Antibacterial activity against methicillin-resistant Staphylococcus aureus 2658 RCMB after 20 hrs by broth microdilution assay; format: functional
Staphylococcus aureus [2] = test: Antibacterial activity against Staphylococcus aureus after 20 hrs by broth microdilution assay; format: functional
Staphylococcus aureus [3] = test: Bactericidal activity against methicillin-sensitive Staphylococcus aureus NRS107 incubated for 20 hrs followed by re-plating on tryptic soy agar plates at 37 degC for 18 hrs by broth microdilution assay; format: functional
Staphylococcus aureus [4] = test: Antibacterial activity against methicillin-resistant Staphylococcus aureus after 20 hrs by broth microdilution assay; format: functional
Staphylococcus aureus [5] = test: Bactericidal activity against linezolid-resistant Staphylococcus aureus NRS119 incubated for 20 hrs followed by re-plating on tryptic soy agar plates at 37 degC for 18 hrs by broth microdilution assay; format: functional
Staphylococcus aureus [6] = test: Bactericidal activity against Staphylococcus aureus USA400 NRS123 incubated for 20 hrs followed by re-plating on tryptic soy agar plates at 37 degC for 18 hrs by broth microdilution assay; format: functional
Staphylococcus aureus [7] = test: Bactericidal activity against Staphylococcus aureus USA300 NRS384 incubated for 20 hrs followed by re-plating on tryptic soy agar plates at 37 degC for 18 hrs by broth microdilution assay; format: functional
Staphylococcus aureus [8] = test: Antibacterial activity against methicillin-resistant Staphylococcus aureus NRS385 after 20 hrs by broth microdilution assay; format: functional; details: NRS385, 20 h
Staphylococcus aureus [9] = test: Bactericidal activity against methicillin-resistant Staphylococcus aureus NRS385 incubated for 20 hrs followed by re-plating on tryptic soy agar plates at 37 degC for 18 hrs by broth microdilution assay; format: functional
Staphylococcus aureus [10] = test: Antibacterial activity against methicillin-resistant Staphylococcus aureus NRS386 after 20 hrs by broth microdilution assay; format: functional; details: NRS386, 20 h
Staphylococcus aureus [11] = test: Bactericidal activity against methicillin-resistant Staphylococcus aureus NRS386 incubated for 20 hrs followed by re-plating on tryptic soy agar plates at 37 degC for 18 hrs by broth microdilution assay; format: functional
Staphylococcus aureus [12] = test: Antibacterial activity against vancomycin-resistant Staphylococcus aureus VRSA10 after 20 hrs by broth microdilution assay; format: functional; details: VRSA10, 20 h
Staphylococcus aureus [13] = test: Bactericidal activity against vancomycin-resistant Staphylococcus aureus VRSA10 incubated for 20 hrs followed by re-plating on tryptic soy agar plates at 37 degC for 18 hrs by broth microdilution assay; format: functional
Staphylococcus aureus [14] = test: Antibacterial activity against vancomycin-resistant Staphylococcus aureus VRSA12 after 20 hrs by broth microdilution assay; format: functional; details: VRSA12, 20 h
Staphylococcus aureus [15] = test: Bactericidal activity against vancomycin-resistant Staphylococcus aureus VRSA12 incubated for 20 hrs followed by re-plating on tryptic soy agar plates at 37 degC for 18 hrs by broth microdilution assay; format: functional
[16] = test system: Staphylococcus epidermidis; test: Antibacterial activity against methicillin-resistant Staphylococcus epidermidis NRS101 after 20 hrs by broth microdilution assay; format: functional; details: NRS101, 20 h
[17] = test system: Staphylococcus epidermidis; test: Bactericidal activity against methicillin-resistant Staphylococcus epidermidis NRS101 incubated for 20 hrs followed by re-plating on tryptic soy agar plates at 37 degC for 18 hrs by broth microdilution assay; format: functional
Enterococcus faecalis [18] = test: Antibacterial activity against vancomycin-resistant Enterococcus faecalis ATCC 51299 after 20 hrs by broth microdilution assay; format: functional; details: ATCC 51299, 20 h
Enterococcus faecalis [19] = test: Bactericidal activity against vancomycin-resistant Enterococcus faecalis ATCC 51299 incubated for 20 hrs followed by re-plating on tryptic soy agar plates at 37 degC for 18 hrs by broth microdilution assay; format: functional
Enterococcus faecium [20] = test: Antibacterial activity against vancomycin-resistant Enterococcus faecium ATCC 700221 after 20 hrs by broth microdilution assay; format: functional; details: ATCC 700221, 20 h
Enterococcus faecium [21] = test: Bactericidal activity against vancomycin-resistant Enterococcus faecium ATCC 700221 incubated for 20 hrs followed by re-plating on tryptic soy agar plates at 37 degC for 18 hrs by broth microdilution assay; format: functional
Listeria monocytogenes [22] = test: Antibacterial activity against Listeria monocytogenes ATCC 19111 after 20 hrs by broth microdilution assay; format: functional; details: ATCC 19111, 20 h
Listeria monocytogenes [23] = test: Bactericidal activity against Listeria monocytogenes ATCC 19111 incubated for 20 hrs followed by re-plating on tryptic soy agar plates at 37 degC for 18 hrs by broth microdilution assay; format: functional
Streptococcus pneumoniae [24] = test: Antibacterial activity against cephalosporin-resistant Streptococcus pneumoniae ATCC 51916 after 20 hrs by broth microdilution assay; format: functional; details: ATCC 51916, 20 h
Streptococcus pneumoniae [25] = test: Bactericidal activity against cephalosporin-resistant Streptococcus pneumoniae ATCC 51916 incubated for 20 hrs followed by re-plating on tryptic soy agar plates at 37 degC for 18 hrs by broth microdilution assay; format: functional
Streptococcus pneumoniae [26] = test: Antibacterial activity against methicillin-resistant Streptococcus pneumoniae ATCC 700677 after 20 hrs by broth microdilution assay; format: functional; details: ATCC 700677, 20 h
Streptococcus pneumoniae [27] = test: Bactericidal activity against methicillin-resistant Streptococcus pneumoniae ATCC 700677 incubated for 20 hrs followed by re-plating on tryptic soy agar plates at 37 degC for 18 hrs by broth microdilution assay; format: functional
Enterococcus faecalis [28] = test: Ratio of MBC to MIC for vancomycin-resistant Enterococcus faecalis ATCC 51299; format: functional
Listeria monocytogenes [29] = test: Ratio of MBC to MIC for Listeria monocytogenes ATCC 19111; format: functional
Staphylococcus aureus [30] = test: Bactericidal activity against Staphylococcus aureus USA400 assessed as reduction in colony forming unit at 6 times MIC treated for 2 hrs followed by re-plating on tryptic soy agar plates at 37 degC for 18 to 20 hrs by broth microdilution assay; format: functional; parameters: scale not given: the % may be the effect or the level left
Staphylococcus aureus [31] = test: Bactericidal activity against Staphylococcus aureus USA400 assessed as reduction in colony forming unit at 3 times MIC treated for 4 hrs followed by re-plating on tryptic soy agar plates at 37 degC for 18 to 20 hrs by broth microdilution assay; format: functional; parameters: scale not given: the % may be the effect or the level left
Staphylococcus aureus [32] = test: Antibacterial activity against methicillin-resistant Staphylococcus aureus USA400 NRS123 assessed as ratio of MIC after and before 14 passages over 2 weeks by broth microdilution method; format: functional
Caco-2 = test: Cytotoxicity against human Caco2 cells assessed as effect on cell viability up to 64 ug/ml after 2 hrs by MTS assay; format: cell-based; details: caco-2, 2 h
[33] = Selectivity index, ratio of compound effect for human Caco2 cells at maximum non-toxic concentration concentration to MIC for methicillin-resistant Staphylococcus epidermidis NRS101; format: toxicity; details: Caco-2 cells, read-out: Selectivity Index
[34] = Selectivity index, ratio of compound effect for human Caco2 cells at maximum non-toxic concentration concentration to MIC for vancomycin-resistant Enterococcus faecalis ATCC 51299; format: toxicity; details: Caco-2 cells, read-out: Selectivity Index
[35] = Selectivity index, ratio of compound effect for human Caco2 cells at maximum non-toxic concentration concentration to MIC for vancomycin-resistant Enterococcus faecium ATCC 700221; format: toxicity; details: Caco-2 cells, read-out: Selectivity Index
[36] = Selectivity index, ratio of compound effect for human Caco2 cells at maximum non-toxic concentration concentration to MIC for Listeria monocytogenes ATCC 19111; format: toxicity; details: Caco-2 cells, read-out: Selectivity Index
[37] = Selectivity index, ratio of compound effect for human Caco2 cells at maximum non-toxic concentration concentration to MIC for cephalosporin-resistant Streptococcus pneumoniae ATCC 51916; format: toxicity; details: Caco-2 cells, read-out: Selectivity Index
[38] = Selectivity index, ratio of compound effect for human Caco2 cells at maximum non-toxic concentration concentration to MIC for methicillin-resistant Streptococcus pneumoniae ATCC 700677; format: toxicity; details: Caco-2 cells, read-out: Selectivity Index

With `CCCCCCCOc1ccc(-c2nc(C)c(-c3ccnc(NC(=N)N4CCN(C)CC4)n3)s2)cc1` the MIC (Staphylococcus aureus [1]) was 0.78 µg/mL (≈ 1.54 µM), the MIC (Staphylococcus aureus [2]) was 8 µg/mL (≈ 15.8 µM) and the MBC (Staphylococcus aureus [3]) was 8 µg/mL (≈ 15.8 µM). It also gave an MIC (Staphylococcus aureus [4]) of 8 µg/mL (≈ 15.8 µM), an MBC (Staphylococcus aureus [5]) of 8 µg/mL (≈ 15.8 µM) and an MBC (Staphylococcus aureus [6]) of 8 µg/mL (≈ 15.8 µM). It also gave an MBC (Staphylococcus aureus [7]) of 8 µg/mL (≈ 15.8 µM), an MIC (Staphylococcus aureus [8]) of 8 µg/mL (≈ 15.8 µM) and an MBC (Staphylococcus aureus [9]) of 8 µg/mL (≈ 15.8 µM). For the same compound, the MIC (Staphylococcus aureus [10]) was 8 µg/mL (≈ 15.8 µM), the MBC (Staphylococcus aureus [11]) was 8 µg/mL (≈ 15.8 µM) and the MIC (Staphylococcus aureus [12]) was 8 µg/mL (≈ 15.8 µM). The MBC (Staphylococcus aureus [13]) was 8 µg/mL (≈ 15.8 µM), the MIC (Staphylococcus aureus [14]) was 8 µg/mL (≈ 15.8 µM) and the MBC (Staphylococcus aureus [15]) was 8 µg/mL (≈ 15.8 µM). The MIC [16] was 8 µg/mL (≈ 15.8 µM), the MBC [17] was 8 µg/mL (≈ 15.8 µM) and the MIC (Enterococcus faecalis [18]) was 8 µg/mL (≈ 15.8 µM). It also gave an MBC (Enterococcus faecalis [19]) of 16 µg/mL (≈ 31.5 µM), an MIC (Enterococcus faecium [20]) of 8 µg/mL (≈ 15.8 µM) and an MBC (Enterococcus faecium [21]) of 8 µg/mL (≈ 15.8 µM). It also gave an MIC (Listeria monocytogenes [22]) of 4 µg/mL (≈ 7.88 µM), an MBC (Listeria monocytogenes [23]) of 8 µg/mL (≈ 15.8 µM) and an MIC (Streptococcus pneumoniae [24]) of 16 µg/mL (≈ 31.5 µM). The MBC (Streptococcus pneumoniae [25]) was 16 µg/mL (≈ 31.5 µM), the MIC (Streptococcus pneumoniae [26]) was 16 µg/mL (≈ 31.5 µM) and the MBC (Streptococcus pneumoniae [27]) was 16 µg/mL (≈ 31.5 µM). The Ratio (Enterococcus faecalis [28]) was 1, the Ratio (Listeria monocytogenes [29]) was 1 and the Activity (Staphylococcus aureus [30]) was 100%. For the same compound, the Activity (Staphylococcus aureus [31]) was 100%, the Ratio (Staphylococcus aureus [32]) was 1 and the Activity (Caco-2) was “Non-Toxic”. It also gave a selectivity ratio [33] of 7 to 82, a selectivity ratio [34] of 7 to 82 and a selectivity ratio [35] of 7 to 82. It also gave a selectivity ratio [36] of 7 to 82, a selectivity ratio [37] of 7 to 82 and a selectivity ratio [38] of 7 to 82.
